From ChEMBL document CHEMBL1201862, “PubChem BioAssay data set” (2004)
Calls of active or inactive are those of the source.

What was measured:
[1] = biological target: Peroxisome proliferator-activated receptor gamma/Nuclear receptor coactivator 1 (Homo sapiens, UniProt P37231); assay: (§1) TR-FRET dose response biochemical High Throughput Screening assay for agonists of the steroid receptor coactivator 1 (SRC-1) recruitment by the peroxisome proliferator-activated receptor gamma (PPAR gamma): non-selective agonists. [Related pubchem assays (depositor defined):AID1300, AID1808, AID504735, AID631]; type: protein assay
[2] = biological target: Peroxisome proliferator-activated receptor gamma/Nuclear receptor coactivator 3 (Homo sapiens, UniProt P37231); assay: as §1, with “3 (SRC-3)” for “1 (SRC-1)”, “assays: 1301 (Confirmation screen.), 1048 (Primary screen.)]” for “assays (depositor defined):AID1300, AID1808, AID504735, AID631]”; type: functional
[3] = biological target: Peroxisome proliferator-activated receptor gamma/Nuclear receptor coactivator 2 (Homo sapiens, UniProt P37231); assay: TR-FRET dose response biochemical High Throughput Screening assay for agonists of the steroid receptor coactivator 2 (SRC-2) recruitment by the peroxisome proliferator-activated receptor gamma (PPAR gamma): non-selective agonists. [Related pubchem assays: 1297, 1032 ]; type: functional
[4] = test system: HEK293; assay: NOD1 signaling inhibitors, primary screen, cell-based, luminescence, uHTS (AID 1578); type: functional; settings: Homo sapiens
[5] = test system: HEK293; assay: cells; type: functional, cell-based; settings: Homo sapiens
[6] = test system: HEK293; assay: cells; type: functional, cell-based; settings: Homo sapiens; remark: listed apart in the source
[7] = biological target: Nucleotide-binding oligomerization domain-containing protein 2 (Homo sapiens, UniProt Q9HC29); assay: NOD2 signaling inhibitors, cell-based, luminescence, uHTS, HEK293 (AID 1566); type: functional
[8] = test system: HEK293; assay: NOD2 signaling inhibitors in MDP-stimulated cells, cell-based, uHTS, luminescence (AID 2001); type: functional; settings: Homo sapiens
[9] = test system: HEK293; assay: cells; type: functional, cell-based; settings: Homo sapiens; remark: listed apart in the source
[10] = biological target: T1, Short transient receptor potential channel 4 (Mus musculus, UniProt Q9QUQ5); assay: mouse TRPC4 channel activators, dose response, cell-based, HEK293 TRPC4/mu-opioid, Fluo-4 calcium (AID 434937); type: functional
T1 sequence (Q9QUQ5 whole entry): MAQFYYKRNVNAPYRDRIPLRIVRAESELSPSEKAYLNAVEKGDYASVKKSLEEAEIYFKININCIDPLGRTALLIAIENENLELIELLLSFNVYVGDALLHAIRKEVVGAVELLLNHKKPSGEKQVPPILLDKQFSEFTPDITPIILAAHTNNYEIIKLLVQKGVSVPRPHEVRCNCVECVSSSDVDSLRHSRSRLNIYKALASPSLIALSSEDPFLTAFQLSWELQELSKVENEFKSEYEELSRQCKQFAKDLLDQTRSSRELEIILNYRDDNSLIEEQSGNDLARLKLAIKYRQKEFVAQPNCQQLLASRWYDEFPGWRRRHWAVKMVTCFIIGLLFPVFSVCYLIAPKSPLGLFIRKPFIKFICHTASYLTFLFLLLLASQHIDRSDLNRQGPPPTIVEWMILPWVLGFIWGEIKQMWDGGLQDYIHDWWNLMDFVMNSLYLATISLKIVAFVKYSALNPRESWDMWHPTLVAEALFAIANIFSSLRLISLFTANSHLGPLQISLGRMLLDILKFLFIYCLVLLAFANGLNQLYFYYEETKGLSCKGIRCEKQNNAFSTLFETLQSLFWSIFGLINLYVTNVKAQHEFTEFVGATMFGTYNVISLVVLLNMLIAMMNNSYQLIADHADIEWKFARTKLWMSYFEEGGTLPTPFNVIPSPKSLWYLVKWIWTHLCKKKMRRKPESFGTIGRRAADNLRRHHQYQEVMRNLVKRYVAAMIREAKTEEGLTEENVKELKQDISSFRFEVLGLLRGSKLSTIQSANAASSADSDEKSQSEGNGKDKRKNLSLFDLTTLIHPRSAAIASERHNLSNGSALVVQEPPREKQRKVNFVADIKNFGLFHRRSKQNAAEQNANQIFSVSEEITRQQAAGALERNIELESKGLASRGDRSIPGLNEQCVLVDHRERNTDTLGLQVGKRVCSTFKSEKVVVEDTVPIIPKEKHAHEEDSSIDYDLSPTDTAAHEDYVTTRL

[11] = biological target: Cytochrome P450 2C19 (Homo sapiens, UniProt P33261); assay: Cytochrome panel assay with activity outcomes. Panel member name: p450-cyp2c19 Compounds with AC50 equal or less than 10 uM are considered active; type: functional; settings: read-out: AC50
[12] = biological target: Delta-type opioid receptor (Homo sapiens, UniProt P41143); assay: Counterscreen for agonists of heterodimerization of the mu 1 (OPRM1) and delta 1 (OPRD1) opioid receptors: Luminescence-based cell-based high throughput dose response assay to identify agonists of OPRD1 homodimerization. [Related pubchem assays (depositor defined):AID504326, AID504355, AID504692, AID504904, AID504905]; type: functional
[13] = biological target: Mu-type opioid receptor (Homo sapiens, UniProt P35372); assay: Counterscreen for agonists of heterodimerization of the mu 1 (OPRM1) and delta 1 (OPRD1) opioid receptors: Luminescence-based cell-based high throughput dose response assay to identify agonists of OPRM1 homodimerization.; type: functional;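 also: U2OS cells expressing OPRM1 and beta-arrestin as split beta-galactosidase partners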
[14] = biological target: 5-hydroxytryptamine receptor 5A (Homo sapiens, UniProt P47898); assay: Counterscreen for agonists of OPRM1-OPRD1 heterodimerization: luminescence-based cell-based high throughput dose response assay to identify agonists of 5-hydroxytryptamine (serotonin) 5A receptor (HTR5A). [Related pubchem assays (depositor defined):AID504326, AID504355, AID504692, AID504904, AID504905]; type: functional
[15] = biological target: Cytochrome P450 2D6 (Homo sapiens, UniProt P10635);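 also: CYP2D6 member of a cytochrome P450 panel assay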
[16] = biological target: Cytochrome P450 2C9 (Homo sapiens, UniProt P11712)
[17] = cytotoxicity in HPDE-C7 cells, cell-based, fluorescence, HTS (AID 430); type: functional; settings: Homo sapiens
[18] = biological target: T2, Estrogen receptor (Homo sapiens, UniProt P03372);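 also: potency for inhibiting coactivator peptide recruitment to the receptor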
T2 sequence (P03372 whole entry): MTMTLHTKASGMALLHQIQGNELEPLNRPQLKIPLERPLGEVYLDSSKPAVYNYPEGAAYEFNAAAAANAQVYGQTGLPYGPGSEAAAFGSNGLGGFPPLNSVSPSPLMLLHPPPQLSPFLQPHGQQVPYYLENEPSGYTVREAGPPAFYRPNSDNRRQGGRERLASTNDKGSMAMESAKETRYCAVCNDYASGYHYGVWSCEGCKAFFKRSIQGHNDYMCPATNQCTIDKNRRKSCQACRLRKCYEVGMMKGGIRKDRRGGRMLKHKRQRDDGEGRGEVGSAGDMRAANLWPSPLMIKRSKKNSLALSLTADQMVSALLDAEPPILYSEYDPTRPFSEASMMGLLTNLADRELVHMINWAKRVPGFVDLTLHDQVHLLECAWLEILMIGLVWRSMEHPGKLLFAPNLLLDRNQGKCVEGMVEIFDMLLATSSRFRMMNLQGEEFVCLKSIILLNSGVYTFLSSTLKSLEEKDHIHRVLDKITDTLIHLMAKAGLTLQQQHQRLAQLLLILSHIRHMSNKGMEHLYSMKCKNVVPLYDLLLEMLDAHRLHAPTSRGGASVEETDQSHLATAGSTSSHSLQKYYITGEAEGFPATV

[19] = cytotoxicity in KRAS-transformed pancreatic duct cells, primary screen, cell-based, fluorescence, HTS (AID 431); type: functional; settings: Homo sapiens;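 also: cell line used: HPDE-C7K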
[20] = biological target: G-protein coupled receptor 55 (Homo sapiens, UniProt Q9Y2T6); assay: GPR55 agonists via beta-arrestin recruitment, primary screen, imaging, U2OS cells, beta-arrestin-GFP redistribution (AID 1961); type: functional
Chain of G-protein coupled receptor 55 (Q9Y2T6 whole entry): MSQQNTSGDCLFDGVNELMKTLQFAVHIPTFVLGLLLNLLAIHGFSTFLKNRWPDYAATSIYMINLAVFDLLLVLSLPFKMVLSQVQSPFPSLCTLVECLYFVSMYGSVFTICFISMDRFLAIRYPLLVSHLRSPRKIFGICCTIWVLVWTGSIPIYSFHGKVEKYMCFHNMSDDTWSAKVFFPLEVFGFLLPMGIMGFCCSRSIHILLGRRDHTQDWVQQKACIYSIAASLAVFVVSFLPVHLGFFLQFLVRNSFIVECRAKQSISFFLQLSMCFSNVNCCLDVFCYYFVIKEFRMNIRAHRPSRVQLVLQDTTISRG

Chain of 5-hydroxytryptamine receptor 5A (P47898 whole entry): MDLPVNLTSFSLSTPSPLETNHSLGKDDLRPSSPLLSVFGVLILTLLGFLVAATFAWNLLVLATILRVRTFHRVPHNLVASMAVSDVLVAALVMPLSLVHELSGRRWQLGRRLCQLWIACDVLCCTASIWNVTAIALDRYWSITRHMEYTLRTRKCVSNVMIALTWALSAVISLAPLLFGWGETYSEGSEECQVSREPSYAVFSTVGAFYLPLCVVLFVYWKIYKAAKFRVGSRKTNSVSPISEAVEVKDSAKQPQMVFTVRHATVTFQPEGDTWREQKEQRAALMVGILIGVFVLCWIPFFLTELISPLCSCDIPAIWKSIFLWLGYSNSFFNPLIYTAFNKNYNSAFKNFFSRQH
Chain of Cytochrome P450 2C9 (P11712 whole entry): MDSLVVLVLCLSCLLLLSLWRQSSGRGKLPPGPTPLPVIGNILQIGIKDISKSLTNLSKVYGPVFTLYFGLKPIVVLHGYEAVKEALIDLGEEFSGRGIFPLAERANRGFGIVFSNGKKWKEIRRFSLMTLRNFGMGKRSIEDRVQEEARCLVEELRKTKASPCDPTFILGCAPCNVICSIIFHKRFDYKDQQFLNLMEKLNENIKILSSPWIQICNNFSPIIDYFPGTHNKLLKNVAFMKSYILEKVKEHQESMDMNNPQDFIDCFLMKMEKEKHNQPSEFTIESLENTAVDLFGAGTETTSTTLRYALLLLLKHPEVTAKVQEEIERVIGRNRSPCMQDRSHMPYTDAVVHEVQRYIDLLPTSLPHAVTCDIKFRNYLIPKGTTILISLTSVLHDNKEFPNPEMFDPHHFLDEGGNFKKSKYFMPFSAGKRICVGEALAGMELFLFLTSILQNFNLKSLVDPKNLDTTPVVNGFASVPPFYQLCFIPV
Chain of Delta-type opioid receptor (P41143 whole entry): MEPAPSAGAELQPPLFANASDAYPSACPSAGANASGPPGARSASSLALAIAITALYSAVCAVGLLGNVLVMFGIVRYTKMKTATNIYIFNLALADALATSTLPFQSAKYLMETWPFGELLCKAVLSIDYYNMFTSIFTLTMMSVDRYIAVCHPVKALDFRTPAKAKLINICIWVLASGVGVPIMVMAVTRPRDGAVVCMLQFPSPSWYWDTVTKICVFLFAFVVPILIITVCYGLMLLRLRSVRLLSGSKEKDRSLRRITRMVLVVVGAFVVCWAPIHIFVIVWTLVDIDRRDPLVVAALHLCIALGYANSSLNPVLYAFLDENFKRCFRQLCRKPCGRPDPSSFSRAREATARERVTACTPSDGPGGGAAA
Chain of Nucleotide-binding oligomerization domain-containing protein 2 (Q9HC29 whole entry, the tested form may be a part): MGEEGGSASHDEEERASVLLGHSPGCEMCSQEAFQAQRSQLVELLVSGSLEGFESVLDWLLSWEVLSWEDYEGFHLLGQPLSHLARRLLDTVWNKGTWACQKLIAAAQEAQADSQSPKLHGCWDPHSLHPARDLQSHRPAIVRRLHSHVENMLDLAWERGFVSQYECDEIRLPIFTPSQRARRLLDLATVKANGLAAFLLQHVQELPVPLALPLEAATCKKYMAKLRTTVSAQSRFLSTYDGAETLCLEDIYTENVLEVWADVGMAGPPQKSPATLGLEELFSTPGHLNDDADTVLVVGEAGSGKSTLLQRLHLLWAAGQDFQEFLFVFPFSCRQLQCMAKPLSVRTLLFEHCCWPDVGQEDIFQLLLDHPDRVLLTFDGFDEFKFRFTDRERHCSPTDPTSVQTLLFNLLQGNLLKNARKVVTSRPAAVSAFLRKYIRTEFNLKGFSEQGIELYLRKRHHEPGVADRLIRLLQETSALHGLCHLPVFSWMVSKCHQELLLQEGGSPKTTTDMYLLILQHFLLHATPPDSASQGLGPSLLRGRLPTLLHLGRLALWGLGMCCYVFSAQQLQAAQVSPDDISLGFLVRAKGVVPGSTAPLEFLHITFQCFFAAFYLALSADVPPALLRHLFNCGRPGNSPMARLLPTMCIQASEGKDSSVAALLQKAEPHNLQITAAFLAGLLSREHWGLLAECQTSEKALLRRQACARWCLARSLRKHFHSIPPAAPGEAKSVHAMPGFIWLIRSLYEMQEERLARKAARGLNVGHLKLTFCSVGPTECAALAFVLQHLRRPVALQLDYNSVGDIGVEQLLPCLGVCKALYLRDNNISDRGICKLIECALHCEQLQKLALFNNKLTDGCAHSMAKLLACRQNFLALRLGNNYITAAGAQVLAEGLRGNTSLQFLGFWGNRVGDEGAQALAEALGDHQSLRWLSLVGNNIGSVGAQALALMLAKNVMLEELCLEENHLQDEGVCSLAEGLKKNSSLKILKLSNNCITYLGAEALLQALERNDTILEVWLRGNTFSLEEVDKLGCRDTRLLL
Chain of Mu-type opioid receptor (P35372 whole entry): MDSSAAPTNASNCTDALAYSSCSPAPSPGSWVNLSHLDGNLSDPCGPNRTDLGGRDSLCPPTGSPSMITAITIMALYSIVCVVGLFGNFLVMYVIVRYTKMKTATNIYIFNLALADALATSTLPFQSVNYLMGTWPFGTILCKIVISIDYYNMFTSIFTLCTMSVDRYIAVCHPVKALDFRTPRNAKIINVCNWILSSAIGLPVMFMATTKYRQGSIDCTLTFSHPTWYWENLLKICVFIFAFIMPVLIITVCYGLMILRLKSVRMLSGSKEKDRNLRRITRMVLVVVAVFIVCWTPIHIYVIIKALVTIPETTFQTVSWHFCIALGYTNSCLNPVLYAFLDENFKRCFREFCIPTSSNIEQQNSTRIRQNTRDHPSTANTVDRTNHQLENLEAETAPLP
Chain of Peroxisome proliferator-activated receptor gamma/Nuclear receptor coactivator 3 (P37231 whole entry): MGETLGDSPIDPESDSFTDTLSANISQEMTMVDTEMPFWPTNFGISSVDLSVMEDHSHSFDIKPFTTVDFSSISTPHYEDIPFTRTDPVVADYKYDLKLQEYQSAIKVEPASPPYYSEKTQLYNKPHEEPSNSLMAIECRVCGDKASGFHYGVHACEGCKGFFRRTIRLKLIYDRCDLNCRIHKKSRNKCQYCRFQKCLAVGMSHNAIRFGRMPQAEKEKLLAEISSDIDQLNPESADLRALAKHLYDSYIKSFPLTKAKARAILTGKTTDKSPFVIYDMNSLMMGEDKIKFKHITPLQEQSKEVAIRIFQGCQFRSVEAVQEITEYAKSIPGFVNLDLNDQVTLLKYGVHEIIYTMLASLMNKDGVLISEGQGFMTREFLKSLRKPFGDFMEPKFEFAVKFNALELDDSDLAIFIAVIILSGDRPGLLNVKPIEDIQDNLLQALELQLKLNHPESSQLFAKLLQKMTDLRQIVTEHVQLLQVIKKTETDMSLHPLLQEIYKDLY
Chain of Peroxisome proliferator-activated receptor gamma/Nuclear receptor coactivator 3 (Q9Y6Q9 whole entry, further chain): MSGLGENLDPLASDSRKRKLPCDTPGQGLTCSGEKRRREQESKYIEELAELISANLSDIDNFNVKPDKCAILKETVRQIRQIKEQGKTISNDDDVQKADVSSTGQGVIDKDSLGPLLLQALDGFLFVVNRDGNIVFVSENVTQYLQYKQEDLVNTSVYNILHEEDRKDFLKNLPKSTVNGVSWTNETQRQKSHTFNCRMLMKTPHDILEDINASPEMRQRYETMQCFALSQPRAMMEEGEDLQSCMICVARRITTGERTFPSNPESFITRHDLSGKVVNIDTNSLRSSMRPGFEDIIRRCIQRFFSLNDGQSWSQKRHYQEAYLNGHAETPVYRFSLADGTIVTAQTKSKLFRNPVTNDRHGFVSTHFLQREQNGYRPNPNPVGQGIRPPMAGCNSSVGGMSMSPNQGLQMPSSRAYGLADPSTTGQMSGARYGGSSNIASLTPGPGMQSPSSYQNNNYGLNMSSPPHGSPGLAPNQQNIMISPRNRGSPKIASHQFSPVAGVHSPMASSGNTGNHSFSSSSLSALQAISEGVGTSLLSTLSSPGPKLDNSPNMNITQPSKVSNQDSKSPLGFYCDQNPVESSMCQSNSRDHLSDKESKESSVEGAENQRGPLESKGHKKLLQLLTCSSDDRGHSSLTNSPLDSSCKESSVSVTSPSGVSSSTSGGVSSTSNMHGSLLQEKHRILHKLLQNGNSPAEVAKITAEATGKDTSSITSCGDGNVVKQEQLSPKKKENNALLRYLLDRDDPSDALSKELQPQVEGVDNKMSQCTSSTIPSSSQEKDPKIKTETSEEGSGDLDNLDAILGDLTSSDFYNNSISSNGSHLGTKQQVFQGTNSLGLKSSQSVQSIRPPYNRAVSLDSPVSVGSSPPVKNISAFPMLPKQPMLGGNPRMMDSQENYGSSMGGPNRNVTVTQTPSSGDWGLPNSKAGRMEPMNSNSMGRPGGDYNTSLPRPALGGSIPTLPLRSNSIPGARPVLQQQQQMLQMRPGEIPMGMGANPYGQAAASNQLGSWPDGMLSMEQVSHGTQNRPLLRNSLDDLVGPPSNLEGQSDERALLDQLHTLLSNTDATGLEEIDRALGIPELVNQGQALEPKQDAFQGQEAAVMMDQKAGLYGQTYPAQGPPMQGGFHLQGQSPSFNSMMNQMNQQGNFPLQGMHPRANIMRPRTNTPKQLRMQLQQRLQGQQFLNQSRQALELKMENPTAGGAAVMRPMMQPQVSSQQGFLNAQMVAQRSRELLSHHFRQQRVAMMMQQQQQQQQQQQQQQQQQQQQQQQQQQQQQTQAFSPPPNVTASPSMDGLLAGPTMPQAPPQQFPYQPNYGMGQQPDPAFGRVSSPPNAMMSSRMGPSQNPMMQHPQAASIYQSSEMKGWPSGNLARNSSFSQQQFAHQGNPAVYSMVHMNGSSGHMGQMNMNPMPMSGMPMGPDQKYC

Which results are given for `Cc1ccc2nc(NC(=O)CSc3ncnc4c3oc3ccccc34)sc2c1`?
EC50 [1]: > 79.4 µM (inactive); EC50 [2]: > 79.4 µM (not active); EC50 [3]: > 79.4 µM (not active)

For `CCc1c(C)nc2ccc(Br)cc2c1SCCC#N`, which EC50 [4] is on record?
Its EC50 is 3.05 µM (active).

What about the IC50 [5] of the same compound?
Its IC50 is 1.29 µM (active).

And the IC50 [6]?
The IC50 was > 20 µM (inactive).

What about the EC50 [7] of the same compound?
Its EC50 is 3.84 µM (active).

And the IC50 [8]?
The IC50 was 1.74 µM (active).

What about the IC50 [9] of the same compound?
The IC50 was > 20 µM (inactive).

For `CN(C)C(CNC(=O)NC1CCCCC1)c1cccnc1` (stereo not given), which EC50 [10] is on record?
The EC50 was 0.06 µM (active).

And the AC50 [11]?
The AC50 was 25.1 µM (inconclusive).

And the EC50 [12]?
Its EC50 is > 92.5 µM (inactive).

What about the EC50 [13] of the same compound?
The EC50 was > 92.5 µM (inactive).

What about the EC50 [14] of the same compound?
The EC50 was > 92.5 µM (inactive).

And the AC50 [15]?
The AC50 was 31.6 µM (inconclusive).

And the AC50 [16]?
The AC50 was 0.398 µM (inconclusive).

What does the source list for `Cc1ccc(-c2nn3c(C)nnc3s2)cc1NC(=O)c1ccc(-c2cccc(Cl)c2)o1`?
EC50 [17]: 15.4 µM (active); IC50 [18]: > 50 µM (not active); EC50 [19]: 17.7 µM (active); EC50 [20]: 17.7 µM (inactive)
